“Also recorded” adds a separate entry of the source.
Tests used:
[1] = tested on: reactive oxygen species (ROS) in neutrophils; assay: Modified DHR (dihydrorhodamine) assay of oxygen radical generation in PMA-stimulated whole blood; assay type: cell-based, human; details: for suppression of ROS levels (in words): pure antioxidant in DMSO, no membrane/polymer, 25-500 μg/ml
Procedure: In order to determine the effect of membranes and/or genistein on oxygen radical generation, the standard dihydrorhodamine (DHR) assay was modified as follows. The assay consisted of one positive control tube, several sample tubes and one negative control tube. The positive control tube contained 100 μl blood, 25 μl DHR, and 25 μl PMA; the total contents were made up to a total volume of 1 ml with PBS. The effect of oxygen radical generation is tested as follows, using the sample tube containing 100 μl blood, 25 μl DHR, 25 μl PMA and the appropriate sample (for example, unmodified membranes or pure genistein or genistein modified membranes). […] For the assay, two small circular samples (2×0.4 cm^2) were punched out from the cast films and placed inside the test tubes. After adding the membrane, the entire contents were incubated at 37° C. for 3 h (to simulate hemodialysis conditions) while being subjected to continuous shaking. After 3 h of incubation, the membrane samples were removed from the blood and agitated with 1 ml of PBS in order to dislodge the cells that were attached to the membrane. In the case of pure genistein (i.e., no membrane), the samples were prepared by dissolving genistein in DMSO over a wide range of concentration (25-500 μg/ml). The negative control tube contained 100 μl blood, 25 μl DHR, and the sample.
In order to normalize the data obtained from different set of experiments, the following formula was employed to express ROS level in percentage,
where the positive control represent 100% ROS and the negative control represent 0% ROS. The x, y, and z parameters represent the mean fluorescence signal obtained from the positive control, the negative control, and the samples, respectively.

[2] = tested on: peripheral blood mononuclear cells (PBMC); assay: Cell viability (cytotoxicity) assay with 7-AAD dye and flow cytometry; assay type: cell-based; details: pure genistein, 25-500 μg/ml
Procedure: Cell viability assays were conducted to determine the effect of unmodified membranes, pure genistein and genistein modified membranes on whole blood. A nucleic acid dye, 7-Amino-actinomycin D (7-AAD), (BD-Via-Probe™ from BD Bioscience, CA) was used as a viability probe, which is based on uptake of 7-AAD. 7-AAD is a nucleic acid dye, which is designed in such a way that it cannot enter live cells. Fresh blood mixed with the dye was used as a negative control, whereas blood incubated with the membrane and/or genistein served as the experimental samples.
To perform the assays, 100 μl of fresh blood was pipetted into separate polypropylene tubes and mixed with 2 ml of ammonium chloride lysis buffer solution (containing 8.26 g ammonium chloride, 1 g potassium bicarbonate, and 0.037 g ethylenediamine-tetraacetic acid dissolved in 1 liter deionized water). The tubes were allowed to stand at room temperature for 10 min during which most of the red blood cells were lysed. The tubes were centrifuged at room temperature for 5 min at 1,800 rpm. […] The cells were resuspended with 500 μl of PBS and the cell suspension was analyzed using a flow cytometer (EPICS® XL-MCL™, Beckman Coulter, Calif., USA) equipped with System II™ software. […] The fluorescence signal from the dead cells was measured on the FL3 red channel (650 nm) with the flow cytometer.

Compound	suppression of ROS levels (in words) [1]	reduction of the oxygen radicals ([1]; pure genistein in DMSO, no membrane)	cytotoxicity to PBMC [2]
O=c1c(-c2ccc(O)cc2)coc2cc(O)cc(O)c12 [genistein, 5,7-dihydroxy-3-(4-hydroxyphenyl)chromen-4-one]	dose-dependent reduction of ROS level; also recorded: suppress ROS levels significantly; also recorded: Suppression is greater than for Vitamin E	about 50%	non-cytotoxic
Vitamin E	Suppression is greater than for Vitamin E	–	–

Source: patent US8883010B2, “Polymer composition with phytochemical and dialysis membrane formed from the polymer composition” (The University of Akron, priority 2008, dated 2014)
